Experimental data published in patent US11925643B2, “Toll-like receptor 4 (TLR4) inhibitors and use thereof” (MOR RESEARCH APPLICATIONS LTD., priority 2018, dated 2024).
No end group written: not given here.

Key:
primary cardiomyocytes [1] = assay: CK and LDH release by primary cardiomyocytes under LPS treatment (sepsis like); format: cell-based, Rat; details: LPS treatment; 20 μM
Experimental: (§1) Rat hearts (1-2 days old) were removed under sterile conditions and washed three times in phosphate-buffered saline (PBS) to remove excess blood cells. The hearts were minced and then gently agitated in RBD (a solution of proteolytic enzymes (Biological Institute, Ness-Ziona, Israel) prepared from fig tree extract, and diluted 1:100 in Ca^2+- and Mg^2+-free PBS) for a few cycles of 10 min each. Dulbecco's modified Eagle's medium (Biological Industries, Kibbutz Beit Haemek, Israel) containing 10% horse serum was added to supernatant suspensions containing the dissociated cells. The mixture was centrifuged at 1400 rpm for 4 min. The supernatant phase was discarded, and the cells were re-suspended. The cell suspension was diluted to 1.0×10^6 cells/ml, unless stated otherwise, and 1.5 ml of the suspension was placed in 35-mm plastic culture dishes collagen- or gelatin-coated, or on coated cover glasses. The cultures were incubated in a humidified atmosphere of 5% CO2 and 95% air at 37° C.
(§2) Primary cardiomyocytes which were obtained by method described above, were treated with exemplary decoy peptides described herein. After 30 minutes of incubation, sepsis like (LPS treatment for 6 hours), or myocardial infarction (MI) like (hypoxia for 3 hours) conditions were imposed to measure the release of CK and LDH to the medium and determine the potential cardioprotective effect of the tested decoy peptides. Cytotoxicity and level of cell damage were assessed by spectrophotometric measurement of lactate dehydrogenase (LDH) and creatine kinase (CK) activities (at 30° C.). Results are presented as CK and LDH release in arbitrary units (a.u.)
(§3) Activity of LDH and CK was determined in the cell-culture medium (25 μl) transferred into 96-well plates, using commercial L-LDH/CK kits (such as those manufactured, e.g., by Sigma-Aldrich, BioVision™ or Thermo Fisher Scientific®).
(§4) Primary cardiomyocytes were treated with peptides and peptidomimetics of SEQ ID NOs:1-7 provided at concentrations ranging from 1 μM to 20 μM. Following 30 minutes of incubation, sepsis like (LPS treatment for 6 hours) or MI like (hypoxia for 3 hours) conditions were induced to determine the potential cardioprotective effect of the tested compounds. Creatine kinase (CK) and lactate dehydrogenase (LDH) activity were assayed to determine the level of cellular damage and cell protection effect. The experimental procedure is described in Materials and Methods above. Results are presented as CK and LDH release in arbitrary units (a.u.).

primary cardiomyocytes [2] = assay: CK and LDH release by primary cardiomyocytes under hypoxia (MI like); format: cell-based, Rat; details: 20 μM
Experimental: as §1
Using a vacuum pump, the oxygen rich air was evacuated from an incubator containing plates with cell cultures, and a 100% Argon atmosphere was let in, while maintaining a temperature of 37° C. The cell cultures were washed with PBS twice to remove glucose from the medium. Hypoxic treated cells were cultures in PBS without glucose. These cells lasted for 180 minutes.
as §2, §3, §4

IL-1β mRNA = IL-1β mRNA level by RT-qPCR in hypoxic cardiomyocytes; format: cell-based; details: hypoxic conditions
Experimental: Real-time RT-PCR experiments were performed in duplicates on an ABI 7900 instrument (Applied Biosystems™) using Taqman™ Master Mix (Applied Biosystems™). The average threshold cycles (Ct) of the duplicates were used to calculate the relative expression levels of the following genes: TLR4 (Applied Biosystems™ assay primer ID: Mm00569848_m1 Tlr4), TLR2 (assay primer ID: Mm01769726_m1 Tlr2), TNF-α (assay primer ID: Mm00443260_g1 Tnf) and IL-1β (assay primer ID: Mm00434228_m1 II1b) in vitro and in vivo following hypoxia or ischemia, respectively. The reference gene was TBP and the primer used was derived from mouse TATA-box binding protein (Applied Biosystems™ assay primer ID: Mm00446973_m1 Tbp). Amounts of TLR2, TLR4, TNF-α and IL-1β mRNAs in each sample were calculated relative to TBP mRNA, based on the corresponding Cts, as Relative Quantity (RQ) values, and normalized taking as 1 a randomly selected sample of the control group (TBP mRNA). […]
Decoy peptides represented by compounds PM1-PM10 were tested in vitro for their ability to decrease the level of CK and LDH released by stressed cardiomyocytes following exposure to LPS or hypoxic stimulation, and further evaluated for their ability to affect the level of IL-1β and TLR4 mRNA, and expression of IκB and TLR4 proteins, according to the protocols described in Materials and Methods and in Example 5 herein above.

TLR4 mRNA = TLR4 mRNA level by RT-qPCR in hypoxic cardiomyocytes; format: cell-based; details: hypoxic conditions
Experimental: Real-time RT-PCR experiments were performed in duplicates on an ABI 7900 instrument (Applied Biosystems™) using Taqman™ Master Mix (Applied Biosystems™). The average threshold cycles (Ct) of the duplicates were used to calculate the relative expression levels of the following genes: TLR4 (Applied Biosystems™ assay primer ID: Mm00569848_m1 Tlr4), TLR2 (assay primer ID: Mm01769726_m1 Tlr2), TNF-α (assay primer ID: Mm00443260_g1 Tnf) and IL-1β (assay primer ID: Mm00434228_m1 II1b) in vitro and in vivo following hypoxia or ischemia, respectively. The reference gene was TBP and the primer used was derived from mouse TATA-box binding protein (Applied Biosystems™ assay primer ID: Mm00446973_m1 Tbp). Amounts of TLR2, TLR4, TNF-α and IL-1β mRNAs in each sample were calculated relative to TBP mRNA, based on the corresponding Cts, as Relative Quantity (RQ) values, and normalized taking as 1 a randomly selected sample of the control group (TBP mRNA). Calculation were performed using the Applied Biosystems Analysis™ software (StepOnePlus V2.2.2). All mRNA scores are presented in arbitrary units.
Next, peptidomimetics of SEQ ID NOs:1 and 2 were tested for their ability to affect the expression of TLR4. The level of TLR4 mRNA was measured by real-time reverse transcriptase polymerase chain reaction (RT-qPCR) method as described in Materials and Methods. The possible effect of both compounds on expression levels of TLR2 mRNA was used as a negative control.

TLR4 signaling = details: primary murine macrophages; cited from earlier work
[3] = system: TLR4-driven inflammatory response; details: mice, cited from earlier work

Row | Compound | CK release (primary cardiomyocytes [1]) | LDH release (primary cardiomyocytes [1]) | CK release (primary cardiomyocytes [2]) | LDH release (primary cardiomyocytes [2]) | inhibition of IL-1β mRNA production (IL-1β mRNA) [fold] | inhibition of TLR4 mRNA production (TLR4 mRNA) [fold] | TLR4 signaling (TLR4 signaling) | LPS-induced activation of MyD88-dependent and TRIF-dependent cytokines and MAPKs [3] | survival ([3]; lethal LPS dose) | circulating cytokine levels ([3]; sublethal dose of LPS)
1 | Cc1cn(Cc2ccccc2)c(=O)nc1NCCC(C)C [PM2, 1-benzyl-4-(isopentylamino)-5-methylpyrimidin-2(1H)-one] | no significant effect | no significant effect | significant reduction | significant reduction | 1.3 | 2 | – | – | – | –
2 | IVFAEMPCG (Ac-IVFAEMPCG) [prior art decoy peptide derived from the TRAM TIR domain (Piao et al., 2013); used N-acetylated as positive control] | – | – | – | – | – | – | inhibited | inhibited | dramatically improving | significantly diminishing
